Data taken from PubChem BioAssay AID330 (DTP/NCI, 2004).
Values joined by “and” are separate entries in the source; they are usually repeats but may differ in a detail not shown here. Identical values can stand only once. Inconclusive results and toxic doses are left out. Rule for the calls: active = survival T/C of 150% or more; inactive = T/C below 125% in these data.

Tested on: P388 leukemia ip, CD2F1 mice, survival T/C
Assay: NCI In Vivo Anticancer Drug Screen. Data for tumor model P388 Leukemia (intraperitoneal) in CD2F1 (CDF1) mice
Conditions: endpoint: median survival time, higher = longer survival
Procedure, shortened: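 Mice carrying the transplanted tumor received test compound or vehicle. Survival was recorded in each group, and the value is the treated-group measurement divided by that of the vehicle-treated control group.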

[1] = dose: 6.25 mg/kg/injection, schedule: Q01DX005 (ip), vehicle: Klucel (hydroxypropylcellulose) (HPC)
[2] = dose: 12.5 mg/kg/injection, schedule: Q01DX005 (ip), vehicle: Klucel (hydroxypropylcellulose) (HPC)
[3] = dose: 25.0 mg/kg/injection, schedule: Q01DX005 (ip), vehicle: Klucel (hydroxypropylcellulose) (HPC)
[4] = dose: 60.0 mg/kg/injection, schedule: Q01DX005 (ip), vehicle: saline with Tween-80
[5] = dose: 120.0 mg/kg/injection, schedule: Q01DX005 (ip), vehicle: saline with Tween-80
[6] = dose: 50.0 mg/kg/injection, schedule: Q01DX005 (ip), vehicle: saline with Tween-80
[7] = dose: 100.0 mg/kg/injection, schedule: Q01DX005 (ip), vehicle: saline with Tween-80
[8] = dose: 200.0 mg/kg/injection, schedule: Q01DX005 (ip), vehicle: saline with Tween-80
[9] = dose: 50.0 mg/kg/injection, schedule: Q01DX005 (ip), vehicle: Klucel (hydroxypropylcellulose) (HPC)
[10] = dose: 100.0 mg/kg/injection, schedule: Q01DX005 (ip), vehicle: Klucel (hydroxypropylcellulose) (HPC)
[11] = dose: 200.0 mg/kg/injection, schedule: Q01DX005 (ip), vehicle: Klucel (hydroxypropylcellulose) (HPC)
[12] = dose: 25.0 mg/kg/injection, schedule: Q01DX009 (ip), vehicle: saline
[13] = dose: 50.0 mg/kg/injection, schedule: Q01DX009 (ip), vehicle: saline
[14] = dose: 100.0 mg/kg/injection, schedule: Q01DX009 (ip), vehicle: saline
[15] = dose: 200.0 mg/kg/injection, schedule: Q01DX009 (ip), vehicle: saline
[16] = dose: 400.0 mg/kg/injection, schedule: Q01DX009 (ip), vehicle: saline
[17] = dose: 50.0 mg/kg/injection, schedule: Q01DX009 (ip), vehicle: saline with Tween-80
[18] = dose: 240.0 mg/kg/injection, schedule: Q01DX005 (ip), vehicle: saline with Tween-80
[19] = dose: 100.0 mg/kg/injection, schedule: Q01DX009 (ip), vehicle: saline with Tween-80

Measured: T/C

O=C1/C(=C\c2ccccc2)C(NC2CCCCC2)c2ccccc21 (stereo not given)
inactive: dose: 3.12 mg/kg/injection, schedule: Q01DX005 (ip), vehicle: Klucel (hydroxypropylcellulose) (HPC) 109 % of control | [1] 100 % of control | [2] 107 % of control | [3] 107 % of control

CCC1(C(=O)c2ccccc2)C(C(=O)OC)=NC(=N)N=C1C(=O)OC (stereo not given)
inactive: [4] 100 % of control | [5] 95 % of control

O=C1C=C(C2OC(CI)C(O)C2O)C(=O)N1 (stereo not given)
inactive: dose: 1.56 mg/kg/injection, schedule: Q01DX009 (ip), vehicle: water 113 % of control | dose: 3.13 mg/kg/injection, schedule: Q01DX009 (ip), vehicle: water 112 % of control | dose: 6.25 mg/kg/injection, schedule: Q01DX009 (ip), vehicle: water 118 % of control | dose: 12.5 mg/kg/injection, schedule: Q01DX009 (ip), vehicle: water 109 % of control | dose: 25.0 mg/kg/injection, schedule: Q01DX009 (ip), vehicle: water 118 % of control

C1CCN(CCC[Si]23OCCN(CCO2)CCO3)CC1
inactive: [6] 102 % of control | [7] 108 % of control | [8] 106 % of control

CN1CCN=C1c1ccc(NC(=O)c2ccc(C(=O)Nc3ccc(C4=NCCN4C)cc3)c([N+](=O)[O-])c2)cc1
inactive: dose: 0.78 mg/kg/injection, schedule: Q01DX005 (ip), vehicle: saline with Tween-80 110 % of control and 113 % of control | dose: 1.56 mg/kg/injection, schedule: Q01DX005 (ip), vehicle: saline with Tween-80 112 % of control and 114 % of control | dose: 3.13 mg/kg/injection, schedule: Q01DX005 (ip), vehicle: saline with Tween-80 124 % of control

CC/C(Cc1ccc(OC)cc1)=C(/CC)c1ccc(OC)cc1
inactive: [9] 98 % of control | [10] 92 % of control | [11] 102 % of control

CCOC1(OCC)Oc2c(c3ccccc3c3ccccc23)/C1=C1\c2c(c3ccccc3c3ccccc23)OC1(OCC)OCC
inactive: [6] 94 % of control | [7] 92 % of control

NC(N)=O
inactive: dose: 12.5 mg/kg/injection, schedule: Q01DX009 (ip), vehicle: saline 100 % of control | [12] 105 % of control | [13] 105 % of control | [14] 102 % of control | [15] 100 % of control | [16] 98 % of control

NC(=O)c1[nH]cnc1N
inactive: [12] 99 % of control | [13] 105 % of control | [14] 99 % of control | [16] 87 % of control

CCC1C(=O)CC(C(=O)O)C1C(=O)O (stereo not given)
inactive: dose: 30.0 mg/kg/injection, schedule: Q01DX005 (ip), vehicle: saline 98 % of control | dose: 60.0 mg/kg/injection, schedule: Q01DX005 (ip), vehicle: saline 98 % of control and 96 % of control | dose: 120.0 mg/kg/injection, schedule: Q01DX005 (ip), vehicle: saline 95 % of control | dose: 240.0 mg/kg/injection, schedule: Q01DX005 (ip), vehicle: saline 86 % of control

CN1CC[C@@H](c2ccccc2)[C@@H](O)C1
inactive: [6] 97 % of control | [7] 100 % of control

[N-]=[N+]=NC(=O)c1cccs1
inactive: dose: 12.5 mg/kg/injection, schedule: Q01DX009 (ip), vehicle: saline with Tween-80 100 % of control | dose: 25.0 mg/kg/injection, schedule: Q01DX009 (ip), vehicle: saline with Tween-80 101 % of control | [17] 100 % of control

COC(=O)[C@@H]1C(=O)[C@H](C(=O)OC)C2CCCC3CCCC1N32 (stereo not given in full)
inactive: [6] 98 % of control | [7] 98 % of control

Cc1ccc(-n2c(=O)nc([O-])[n+]3ccccc23)cc1
inactive: dose: 60.0 mg/kg/injection, schedule: Q01DX005 (ip), vehicle: Klucel (hydroxypropylcellulose) (HPC) 99 % of control | dose: 120.0 mg/kg/injection, schedule: Q01DX005 (ip), vehicle: Klucel (hydroxypropylcellulose) (HPC) 98 % of control | dose: 240.0 mg/kg/injection, schedule: Q01DX005 (ip), vehicle: Klucel (hydroxypropylcellulose) (HPC) 96 % of control

COC(=O)NN(C(=O)OC)C12CCCCC1N(C(=O)OC)N(C(=O)OC)c1c2ccc2cc(OC)ccc12 (stereo not given)
inactive: dose: 100.0 mg/kg/injection, schedule: Q01DX001 (ip), vehicle: Klucel (hydroxypropylcellulose) (HPC) 96 % of control | dose: 200.0 mg/kg/injection, schedule: Q01DX001 (ip), vehicle: Klucel (hydroxypropylcellulose) (HPC) 92 % of control | dose: 400.0 mg/kg/injection, schedule: Q01DX001 (ip), vehicle: Klucel (hydroxypropylcellulose) (HPC) 91 % of control

O=C(Cc1ccc(CC(=O)NCCCCc2ccccc2)cc1)NCCCCc1ccccc1
inactive: [4] 88 % of control | [5] 88 % of control | [18] 86 % of control

Nc1nc(Cl)c2nnn(C3CC(O)C(CO)C3)c2n1 (stereo not given)
inactive: [1] 116 % of control | [2] 112 % of control | [3] 119 % of control | [9] 110 % of control

COc1c2occc2c(NC(=O)C(Cl)(Cl)Cl)c2ccc(=O)oc12
inactive: dose: 5.0 mg/kg/injection, schedule: Q04DX002 (ip), vehicle: saline with Tween-80 102 % of control | dose: 10.0 mg/kg/injection, schedule: Q04DX002 (ip), vehicle: saline with Tween-80 101 % of control | dose: 20.0 mg/kg/injection, schedule: Q04DX002 (ip), vehicle: saline with Tween-80 102 % of control

C=CCC1=CC2(OC)C(=O)C(OC)(OC)C1C1C(OC)(OC)C(=O)C(OC)=CC12CC=C (stereo not given)
inactive: dose: 18.75 mg/kg/injection, schedule: Q01DX009 (ip), vehicle: Klucel (hydroxypropylcellulose) (HPC) 114 % of control and 93 % of control | dose: 37.5 mg/kg/injection, schedule: Q01DX009 (ip), vehicle: Klucel (hydroxypropylcellulose) (HPC) 99 % of control | dose: 75.0 mg/kg/injection, schedule: Q01DX009 (ip), vehicle: Klucel (hydroxypropylcellulose) (HPC) 102 % of control and 112 % of control | dose: 150.0 mg/kg/injection, schedule: Q01DX009 (ip), vehicle: Klucel (hydroxypropylcellulose) (HPC) 94 % of control | dose: 200.0 mg/kg/injection, schedule: Q01DX009 (ip), vehicle: Klucel (hydroxypropylcellulose) (HPC) 94 % of control

S=C(Nc1ccccn1)c1ccccn1
inactive: [17] 95 % of control | [13] 105 % of control | [19] 88 % of control | [14] 103 % of control | [15] 103 % of control

CC1(C)OC2(C=CC(C)([N+](=O)[O-])C=C2)OC1=O (stereo not given)
inactive: [9] 101 % of control | [10] 94 % of control | [11] 100 % of control

O=C(O)CCC1(CCC(=O)O)OCCO1.[Ag]
inactive: dose: 9.5 mg/kg/injection, schedule: Q01DX009 (ip), vehicle: saline sonified 100 % of control | dose: 19.0 mg/kg/injection, schedule: Q01DX009 (ip), vehicle: saline sonified 109 % of control | dose: 38.0 mg/kg/injection, schedule: Q01DX009 (ip), vehicle: saline sonified 86 % of control

CCCCCc1cc(O)cc2c1Oc1cc(O)cc(C(=O)CCCC)c1C(=O)O2
inactive: [6] 98 % of control | [7] 100 % of control | [8] 107 % of control

Cc1c([C@H](C)[C@@H]2NC[C@@H](C)C[C@H]2O)ccc2c1C[C@H]1[C@H]2CC=C2C[C@@H](O)CC[C@@]21C
inactive: dose: 0.75 mg/kg/injection, schedule: Q01DX009 (ip), vehicle: saline with Tween-80 108 % of control | dose: 1.5 mg/kg/injection, schedule: Q01DX009 (ip), vehicle: saline with Tween-80 115 % of control | dose: 3.0 mg/kg/injection, schedule: Q01DX009 (ip), vehicle: saline with Tween-80 101 % of control and 113 % of control

CC(C)N(C(N)=O)c1ccc2c(c1)OCO2
inactive: [17] 98 % of control | [19] 107 % of control | dose: 200.0 mg/kg/injection, schedule: Q01DX009 (ip), vehicle: saline with Tween-80 98 % of control

O=C(CNC(=O)NCc1ccco1)NNC(=O)Nc1ccc(Cl)c([N+](=O)[O-])c1
inactive: [4] 95 % of control | [5] 94 % of control | [18] 97 % of control

C[Si](Cn1ccc(=O)[nH]c1=O)(c1ccccc1)c1ccccc1
inactive: dose: 100.0 mg/kg/injection, schedule: Q01DX001 (ip), vehicle: saline with Tween-80 109 % of control | dose: 200.0 mg/kg/injection, schedule: Q01DX001 (ip), vehicle: saline with Tween-80 100 % of control | dose: 400.0 mg/kg/injection, schedule: Q01DX001 (ip), vehicle: saline with Tween-80 95 % of control
